These results are taken from ChEMBL document CHEMBL1132922, “Corticotropin releasing factor (CRF) receptor modulators: progress and opportunities for new therapeutic agents” (J Med Chem, 2000).

Assay [1] has as its target T1, Corticotropin-releasing factor receptor 1 (Homo sapiens, UniProt P34998).
T1 sequence (P34998 whole entry): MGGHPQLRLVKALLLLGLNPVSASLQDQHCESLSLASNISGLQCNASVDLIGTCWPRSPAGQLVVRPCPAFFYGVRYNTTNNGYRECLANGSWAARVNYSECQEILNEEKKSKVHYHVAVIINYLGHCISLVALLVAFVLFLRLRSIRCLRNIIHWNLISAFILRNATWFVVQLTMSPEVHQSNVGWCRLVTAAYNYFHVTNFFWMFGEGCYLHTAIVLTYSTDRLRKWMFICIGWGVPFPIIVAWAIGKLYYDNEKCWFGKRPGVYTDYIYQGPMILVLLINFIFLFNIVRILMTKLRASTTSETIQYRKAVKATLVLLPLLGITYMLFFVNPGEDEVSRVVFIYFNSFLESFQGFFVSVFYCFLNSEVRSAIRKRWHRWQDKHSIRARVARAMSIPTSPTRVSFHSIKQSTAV
Kind of assay: Activity of peptidic agonists on corticotropin releasing factor receptor using agonist-stimulated adenylate cyclase assay. The assay is classed as functional.

The target of assay [2] is T1, Corticotropin-releasing factor receptor 1. Kind of assay: Binding affinity of the receptor corticotropin releasing factor receptor with peptidic agonists.
Assay [3] deals with T2, Corticotropin-releasing factor receptor 2 (Homo sapiens, UniProt Q13324).
T2 sequence (Q13324 whole entry): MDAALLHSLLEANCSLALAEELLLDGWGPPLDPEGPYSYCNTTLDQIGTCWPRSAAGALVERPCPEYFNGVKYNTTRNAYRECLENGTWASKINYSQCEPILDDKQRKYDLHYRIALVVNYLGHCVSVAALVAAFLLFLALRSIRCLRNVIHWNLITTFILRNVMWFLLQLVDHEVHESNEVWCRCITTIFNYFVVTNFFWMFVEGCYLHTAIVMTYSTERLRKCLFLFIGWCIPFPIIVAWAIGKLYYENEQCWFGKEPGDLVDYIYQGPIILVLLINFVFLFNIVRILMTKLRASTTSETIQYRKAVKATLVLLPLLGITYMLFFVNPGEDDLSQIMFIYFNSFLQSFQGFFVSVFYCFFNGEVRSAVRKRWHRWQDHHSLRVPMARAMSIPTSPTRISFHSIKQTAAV
Description: Activity of peptidic agonists on h-CRF2-alpha receptor using agonist-stimulated adenylate cyclase assay. The assay is classed as functional.

The target of assay [4] is T2, Corticotropin-releasing factor receptor 2. Description: Binding affinity of the receptor h-CRF2-alpha with peptidic agonists.
The species named for assay [5] is Rattus norvegicus. Description: 50% inhibitory concentration to antagonize Corticotropin releasing factor (CRF) stimulated adenylate cyclase. The assay is classed as functional.
Assay [6] has as its target T3, Corticotropin releasing factor receptor (Rattus norvegicus, UniProt P47866+P35353). Kind of assay: (§1) Compound was tested for the binding affinity to rat corticotropin releasing factor receptor. The assay is classed as protein assay.
Assay [7] addresses T3, Corticotropin releasing factor receptor. The description is as §1. The assay is classed as protein assay. The source holds these as a separate data set.
Assay [8] shares this target. Kind of assay: Inhibition of binding of the radioligand, [125 I-Tyr0]-CRF to rat cerebral cortex membrane. The assay is classed as tissue-based.
For assay [9], the target named is T1, Corticotropin-releasing factor receptor 1. Description: Compound was tested for the binding affinity to human corticotropin releasing factor 1 (hCRF1) receptors.
A short description of assay [10]: Inhibition of ovine CRF stimulated adenylate cyclase assay in CHO-p5 cells. The assay is classed as functional, cell-based. The settings on record: Ovis aries.
Assay [11] concerns the target T3, Corticotropin releasing factor receptor. Kind of assay: Compound was tested for the inhibition of binding of the radioligand, [125 I-Tyr0]-CRF to rat cerebral cortex membrane. The assay is classed as tissue-based.
For assay [12], the species on record is Rattus norvegicus. Description: effective concentration used to stimulate the secretion of adenocorticotropic hormone(ACTH) in primary cultures of rat pituitary cells. Particulars: Pituitary gland cell. The assay is classed as functional, cell-based.
The next assay has as its system HEK293. Description: Inhibition of h- CRF mediated increase in adenylate cyclase activity was evaluated in HEK293 cells. The assay is classed as functional, cell-based. The settings on record: Homo sapiens.
Assay [13] deals with T1, Corticotropin-releasing factor receptor 1. Description: Compound was tested for the binding affinity to human corticotropin releasing factor 1 (hCRF1) receptors.
Assay [14] relates to Rattus norvegicus. Kind of assay: Percent reduction in latency time in the dark compartment at 20 mg/kg was reported. The assay is classed as functional.
Assay [15] has as its system Rattus norvegicus. Kind of assay: Minimum effective dose in rat […] anxiety test when administered perorally. The assay is classed as functional. The settings on record: po, read-out: MED.
The species entered for assay [16] is Rattus norvegicus. Description: Oral activity was evaluated in an rat situational anxiety test. The assay is classed as functional.

Residues, ends and D or L forms follow the SMILES beside them.

For the compound `CC[C@H](C)[C@H](NC(=O)[C@H](CC(=O)O)NC(=O)[C@H](CC(C)C)NC(=O)[C@H](CC(C)C)NC(=O)[C@H](CCCCN)NC(=O)[C@H](CCCN=C(N)N)NC(=O)[C@H](CC(N)=O)NC(=O)[C@H](CO)NC(=O)[C@H](Cc1cnc[nH]1)NC(=O)[C@H](C)NC(=O)[C@H](CCC(N)=O)NC(=O)[C@H](CCC(N)=O)NC(=O)[C@H](C)NC(=O)[C@H](CC(C)C)NC(=O)[C@H](CCC(N)=O)NC(=O)[C@H](CC(=O)O)NC(=O)[C@H](C)NC(=O)[C@H](CCCCN)NC(=O)[C@@H](NC(=O)[C@H](CCSC)NC(=O)[C@H](CCC(=O)O)NC(=O)[C@H](CC(C)C)NC(=O)[C@@H](NC(=O)[C@H](CCC(=O)O)NC(=O)[C@H](CCCN=C(N)N)NC(=O)[C@H](CC(C)C)NC(=O)[C@H](CC(C)C)NC(=O)[C@H](Cc1cnc[nH]1)NC(=O)[C@H](Cc1ccccc1)NC(=O)[C@@H](NC(=O)[C@H](CC(C)C)NC(=O)[C@H](CC(=O)O)NC(=O)[C@H](CC(C)C)NC(=O)[C@H](CO)NC(=O)[C@@H](NC(=O)[C@@H]1CCCN1C(=O)[C@@H]1CCCN1C(=O)[C@H](CCC(=O)O)NC(=O)[C@H](CCC(N)=O)NC(=O)[C@@H](N)CO)[C@@H](C)CC)[C@@H](C)O)C(C)C)[C@@H](C)O)C(=O)N[C@@H](C)C(N)=O`, the EC50 in assay [1] turned out to be 9.7 nM; in assay [3], 61.9 nM. Further, the results for the Ki in assay [2] and in assay [4] were 7.16 nM and 86.4 nM, respectively.
Compound `Cc1cc(C)nc(N(C)c2ccccc2Br)n1` had an IC50 in the assay listed under Rattus norvegicus [5] of 20000 nM.
Compound `CCCCC(CC)n1c(C)nc2c(-c3ccc(Cl)cc3Cl)ncnc21` (configuration not stated) gave a Ki in [6] of 8.8 nM.
Compound `CCCCN(CC)c1nc(C)nc2c1c(C)c(C)n2-c1c(C)cc(C)cc1C` [ANTALARMIN] returned a Ki in [7] of 1 nM.
`CC[C@H](C)[C@H](NC(=O)[C@@H](NC(=O)[C@H](CC(=O)O)NC(=O)[C@H](CC(C)C)NC(=O)[C@H](CC(C)C)NC(=O)[C@H](CC(C)C)NC(=O)[C@H](CCCN=C(N)N)NC(=O)[C@H](CC(N)=O)NC(=O)[C@H](CC(N)=O)NC(=O)[C@H](C)NC(=O)[C@H](C)NC(=O)[C@H](CCC(N)=O)NC(=O)[C@H](CCC(N)=O)NC(=O)[C@H](CCCCN)NC(=O)[C@H](CCC(=O)O)NC(=O)[C@H](CCCCN)NC(=O)[C@H](CCC(=O)O)NC(=O)[C@H](CCC(N)=O)NC(=O)[C@H](CCCCN)NC(=O)[C@H](CCC(=O)O)NC(=O)[C@@H](NC(=O)[C@H](CCC(=O)O)NC(=O)[C@@H](NC(=O)[C@H](CCSC)NC(=O)[C@H](CCCCN)NC(=O)[C@H](CCCN=C(N)N)NC(=O)[C@H](CC(C)C)NC(=O)[C@H](CC(C)C)NC(=O)[C@H](CCC(=O)O)NC(=O)[C@H](CC(C)C)NC(=O)[C@H](CO)NC(=O)[C@H](CC(C)C)NC(=O)[C@H](CC(=O)O)NC(=O)[C@@H](NC(=O)[C@H](CO)NC(=O)[C@@H](NC(=O)[C@@H]1CCCN1C(=O)[C@@H]1CCCN1C(=O)CNC(=O)[C@@H](N)CCC(N)=O)[C@@H](C)CC)[C@@H](C)CC)[C@@H](C)CC)[C@@H](C)CC)[C@@H](C)O)C(N)=O`: the EC50 in [1] came out at 3.4 nM; in assay [3] it was 1.4 nM. In addition, the Ki in assay [2] was 7.3 nM; in [4], 2.73 nM.
Taken in the same sequence, the figures for `CC[C@H](C)[C@H](NC(=O)[C@H](CO)NC(=O)[C@H](CC(C)C)NC(=O)[C@H](CO)NC(=O)[C@@H]1CCCN1C(=O)[C@H](CC(N)=O)NC(=O)[C@@H](N)CC(=O)O)C(=O)N[C@@H](CC(=O)O)C(=O)N[C@@H](CC(C)C)C(=O)N[C@H](C(=O)N[C@@H](Cc1ccccc1)C(=O)N[C@@H](Cc1cnc[nH]1)C(=O)N[C@@H](CC(C)C)C(=O)N[C@@H](CC(C)C)C(=O)N[C@@H](CCCNC(=N)N)C(=O)N[C@H](C(=O)N[C@@H](CC(C)C)C(=O)N[C@@H](CC(C)C)C(=O)N[C@@H](CCC(=O)O)C(=O)N[C@@H](CC(C)C)C(=O)N[C@@H](C)C(=O)N[C@@H](CCCNC(=N)N)C(=O)N[C@H](C(=O)N[C@@H](CCC(N)=O)C(=O)N[C@@H](CO)C(=O)N[C@@H](CCC(N)=O)C(=O)N[C@@H](CCCNC(=N)N)C(=O)N[C@@H](CCC(=O)O)C(=O)N[C@@H](CCCNC(=N)N)C(=O)N[C@@H](C)C(=O)N[C@@H](CCC(=O)O)C(=O)N[C@@H](CCC(N)=O)C(=O)N[C@@H](CC(N)=O)C(=O)N[C@@H](CCCNC(=N)N)C(=O)N[C@H](C(=O)N[C@H](C(=O)N[C@@H](Cc1ccccc1)C(=O)N[C@@H](CC(=O)O)C(=O)N[C@@H](CO)C(=O)N[C@H](C(N)=O)C(C)C)[C@@H](C)CC)[C@@H](C)CC)[C@@H](C)O)[C@@H](C)O)[C@@H](C)O` (H-DNPSLSIDLTFHLLRTLLELARTQSQRERAEQNRIIFDSV-NH2) were 0.22 nM, 0.32 nM, 3.76 nM and 3.6 nM.
For `CC(=O)Sc1c(C)n(C)n(-c2ccccc2)c1=O`, the IC50 in assay [8] amounted to 13.7 µM; in the assay filed under Rattus norvegicus [5] it was 2900 nM.
`CCC(CC)n1nnc2c(N3CCc4cc(Cl)cc(Cl)c43)nc(C)cc21` showed a Ki in assay [9] of 1.3 nM.
In turn, `CCCCN(CC)c1cc(C)nc2c(-c3ccc(Cl)cc3Cl)c(C)nn12` displayed an IC50 in assay [10] of 357 nM.
Regarding `CCCN(c1nc(-c2ccc(Cl)cc2Cl)c(C)s1)c1cccc2ncccc12`, the IC50 in assay [11] was 80 nM.
Take `CCCN(CCOC)c1cc(C)nc2c(-c3ccc(OC)c(OC)c3)c(C)nn12`: the inhibitory constant (Ki) in assay [9] was found to be 13.7 nM.
Regarding `Cc1c(SSc2c(C)n(C)n(-c3ccc4ccccc4c3)c2=O)c(=O)n(-c2ccc3ccccc3c2)n1C`, the IC50 in [8] came out at 3.3 µM; in the assay filed under Rattus norvegicus [5], 1000 nM.
Take `CCN(c1nc(C)cc(N2CC=C(c3cccc(F)c3)CC2)n1)c1ccc(C(C)C)cc1Br`: the IC50 in [11] was determined as 22.1 nM.
Turning to “H-NDDPPISIDLTFHLLRNMIEMARIENEREQAGLNRKYLDEV-NH2”, the EC50 was determined as 6.3 nM in assay [1] and 1.5 nM in assay [3]. Also, the Ki in [2] was determined as 1.07 nM; in assay [4], 1.26 nM.
The compound `CC[C@H](C)[C@H](NC(=O)[C@@H](NC(=O)[C@H](CCC(=O)O)NC(=O)[C@H](CCSC)NC(=O)[C@H](CC(C)C)NC(=O)[C@H](CCCCN)NC(=O)[C@H](CCCN=C(N)N)NC(=O)[C@H](CC(N)=O)NC(=O)[C@H](CO)NC(=O)[C@H](Cc1c[nH]cn1)NC(=O)[C@H](C)NC(=O)[C@H](CCC(N)=O)NC(=O)[C@H](CCC(N)=O)NC(=O)[C@H](C)NC(=O)[C@H](CC(C)C)NC(=O)[C@H](CCC(N)=O)NC(=O)[C@H](CCC(=O)O)NC(=O)[C@H](C)NC(=O)[C@H](CCCN=C(N)N)NC(=O)[C@H](C)NC(=O)[C@H](CCSC)NC(=O)[C@H](CCC(=O)O)NC(=O)[C@H](CC(C)C)NC(=O)[C@@H](NC(=O)[C@H](CCC(=O)O)NC(=O)[C@H](CCCN=C(N)N)NC(=O)[C@H](CC(C)C)NC(=O)[C@H](CC(C)C)NC(=O)[C@H](Cc1c[nH]cn1)NC(=O)[C@H](Cc1ccccc1)NC(=O)[C@@H](NC(=O)[C@H](CC(C)C)NC(=O)[C@H](CC(=O)O)NC(=O)[C@H](CC(C)C)NC(=O)[C@H](CO)NC(=O)[C@@H](NC(=O)[C@@H]1CCCN1C(=O)[C@@H]1CCCN1C(=O)[C@H](CCC(=O)O)NC(=O)[C@H](CCC(=O)O)NC(=O)[C@@H](N)CO)[C@@H](C)CC)[C@@H](C)O)C(C)C)[C@@H](C)CC)C(N)=O` had an EC50 in the assay listed under Rattus norvegicus [12] of 0.2 nM.
Regarding `CCc1nc2c(c(C)nn2-c2ccc(C(C)C)cc2Br)n1Cc1ccccc1`, in assay [6], the Ki was determined as 4 nM.
Take `CCC(CC)Nc1cc(C)nc2c(-c3ccc(OC)cc3C)c(C)nn12`: inhibition with HEK293 was half-maximal at 10 µM (IC50). The compound further came in with a Ki in [13] of 1 nM. The Reduction with Rattus norvegicus [14] is reported as 57%. The minimal effective dose in the assay on Rattus norvegicus [15] was 1 mg/kg. This compound yielded an ED50 in the assay listed under Rattus norvegicus [16] of 1 mg/kg.
As to `CCN(c1nc(C)cc(N2CC=C(c3cccc(F)c3)CC2)n1)c1ccc(C(C)C)cc1SC`, in assay [11], the IC50 is listed as 12.7 nM.
Still for that read-out and setting: next, `CCN(c1nc(C)cc(N2CCC=C(c3ccccc3C)C2)n1)c1ccc(C(C)C)cc1SC`: 10 nM.
